{"source": "patent US20180015100A1", "about": "“COMBINATION PRODUCTS FOR THE TREATMENT OF BACTERIAL INFECTIONS AND METHODS OF PRODUCING OR DOSING OF SAME” (priority 2016, published 2018)", "origin": "cited, not measured here", "conditions": "in vivo, cited from earlier work", "data": [{"smiles": "Nc1nc(/C(=C/CC(=O)O)C(=O)N[C@@H]2C(=O)N3C(C(=O)O)=CCS[C@H]23)cs1", "note": "[Ceftibuten, ceftibuten]", "values": [{"measurement": "Mean Cmax", "setting": "400 mg", "result": 15000, "unit": "ng/mL"}, {"measurement": "Mean fCmax", "setting": "400 mg", "result": 5.3, "unit": "µg/mL"}, {"measurement": "bioavailability", "setting": "po", "result": "40-90%"}, {"measurement": "time free drug concentrations >2 μg/mL following drug administration", "setting": "po", "result": "at least 6 hours"}, {"measurement": "Elimination half-life", "result": "~2.4", "unit": "h"}, {"measurement": "Mean unbound plasma concentration following one elimination half-life", "result": 2600, "unit": "ng/mL"}]}]}
